Data from patent US7164003B2, “Histamine receptor H4 polynucleotides” (Merck & Co. Inc., priority 2001, dated 2007).

Assays:
[1] = test system: H4c receptor variant; settings: 1 μM in PBS, 37° C., 30 min, transfected COS-7 cells, H4c variant cDNA, compared with H4a-transfected cells
Protocol: (§1) The full length wild type […]) and the isoforms H4b and […] were cloned in pCDNA3.1 […] Tag eukaryotic expression vector for expression in COS-7 cells. The COS-7 cells grown in culture chambers were transfected with 2 μg of plasmid DNA containing either one of the H4 isoforms or the wild type H4 with superfect (Qiagen) transfection reagent. Binding of Histamine to receptor or receptor variants was determined by BODIPY-L-Histamine or Fluorescein Histamine (Molecular Probes, Eugene Oreg.). Briefly, the transfected cells were washed with PBS and 1 μM concentration of BODIPY-L-Histamine or Fluorescein Histamine in PBS was added to the cells and incubated at 37° C. for 30-min. Unbound fluorescent labelled histamine was washed in cold PBS and the slides were examined immediately under a fluorescent microscope.

[2] = test system: H4b receptor variant; settings: 1 μM in PBS, 37° C., 30 min, transfected COS-7 cells, H4b variant cDNA, compared with H4a-transfected cells
Protocol: as §1

Row | Substance | Binding of fluorescent labelled histamine (fluorescence under microscope) versus H4 wildtype (H4a) [1] | Binding of fluorescent labelled histamine (fluorescence under microscope) versus H4 wildtype (H4a) [2]
1 | Fluorescein Histamine | qualitatively comparable fluorescence | qualitatively comparable fluorescence
2 | BODIPY-L-Histamine | qualitatively comparable fluorescence | qualitatively comparable fluorescence
